Active and inactive are the calls of the source. The calls are words filed in the database; no cut-off is given here.
Legend:
[1] = target: T1, Pancreatic alpha-amylase (Sus scrofa) (UniProt P00690); assay: Inhibition of pig pancreatic alpha-amylase assessed as maltose release from starch at 5 mg/cm'3 after 10 mins by DNSA assay
T1 sequence (whole entry): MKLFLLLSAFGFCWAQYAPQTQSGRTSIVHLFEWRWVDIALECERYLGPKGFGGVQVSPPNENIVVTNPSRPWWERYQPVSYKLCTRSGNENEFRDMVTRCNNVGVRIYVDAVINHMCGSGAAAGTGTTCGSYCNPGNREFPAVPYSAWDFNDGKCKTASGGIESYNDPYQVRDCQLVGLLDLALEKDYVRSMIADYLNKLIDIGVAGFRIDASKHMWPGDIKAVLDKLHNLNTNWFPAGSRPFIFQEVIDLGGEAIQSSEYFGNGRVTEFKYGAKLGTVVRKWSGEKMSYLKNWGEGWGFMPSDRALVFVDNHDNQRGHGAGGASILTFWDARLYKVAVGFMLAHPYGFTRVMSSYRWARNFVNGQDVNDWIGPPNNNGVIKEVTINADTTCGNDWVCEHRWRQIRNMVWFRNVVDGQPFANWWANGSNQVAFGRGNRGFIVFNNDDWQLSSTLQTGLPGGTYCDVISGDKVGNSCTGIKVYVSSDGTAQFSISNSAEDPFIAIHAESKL

[2] = Inhibition of jack bean alpha-mannosidase assessed as p-nitrophenol release using p-nitrophenyl-alpha-D-mannopyranoside as substrate preincubated for 1 hr before substrate addition at pH 4.5 measured after 10 mins by spectrophotometry; set-up: species or system Canavalia ensiformis
[3] = Inhibition of alpha-glucosidase assessed as p-nitrophenol release using p-nitrophenyl-alpha-D-glucopyranoside as substrate preincubated for 1 hr before substrate addition at pH 6.8 measured after 10 mins by spectrophotometry
[4] = Inhibition of alpha-galactosidase assessed as p-nitrophenol release using p-nitrophenyl-alpha-D-galactopyranoside as substrate preincubated for 1 hr before substrate addition measured after 10 mins by spectrophotometry
[5] = Inhibition of jack bean alpha-mannosidase assessed as p-nitrophenol release using p-nitrophenyl-alpha-D-mannopyranoside as substrate after 15 to 60 mins by spectrophotometry; set-up: species or system Canavalia ensiformis
[6] = Inhibition of alpha-mannosidase

SMILES	inhibition [1]	IC50 [2]	inhibition [3]	inhibition [4]	IC50 [5]	IC50 [6]
NC[C@H]1O[C@@H]2OCC[C@@]1(O)[C@H]2O	inactive	98.3 µM	inactive	inactive	–	–
O[C@H]1[C@H]2[C@H](O)CCCN2C[C@H]1O [TRIDOLGOSIR]	–	–	–	–	0.1 µM	–
OC[C@H]1O[C@@H]2OCC[C@@]1(O)[C@H]2O	inactive	133 µM	inactive	inactive	–	–
OC[C@@H]1CC2C(O)C(O)C1(O)CN2Cc1ccccc1 (stereo partly specified)	–	–	–	–	–	20000 µM
OC[C@@H]1CC2NCC1(O)C(O)C2O (stereo partly specified)	–	–	–	–	–	9600 µM

Reference: ChEMBL document CHEMBL1914357, “Synthesis of anomeric 1,5-anhydrosugars as conformationally locked selective α-mannosidase inhibitors” (Bioorg Med Chem, 2011)
